{
  "source": "patent US6340573B1",
  "about": "“Chromogenic substrates for detecting bacterial hydrolases” (Bio Merieux, priority 1998, dated 2002)",
  "tested_on": "Alanine-aminopeptidase",
  "assay": "GRAM identification with impregnated bottle brush",
  "assay_type": "cell-based, Gram-negative bacteria",
  "conditions": "for coloration intensity: semiquantitative scale up to 4",
  "from_the_text": "According to a representative example, the GRAM identification process uses a substrate based on aminobenzene or a derivative thereof, such as DiMethyl-paraPhenyleneDiamine (DMpPD). In the example which follows, the substrate consists of Alanine-Dimethyl-paraPhenyleneDiamine (AlaDMpPD).\nIt functions as follows. Enzymatic hydrolysis causes release of the DMpPD group. Next, the DMPD binds with α-naphthol (or a derivative) by oxidative coupling facilitated by an oxidizing agent, potassium ferricyanide (K3Fe(CN)6). This then causes formation of a violet-gray complex.\nAnother device has been defined, which is even more specific in Gram identification and which can also be used with blood agars of Columbia type. It consists of:\na medium consisting of a blood agar of Columbia type (with or without AlaDMpPD), and\na reaction mixture which impregnates a bottle brush and which is constituted on the basis of α-naphthol, potassium ferricyanide and AlaDMpPD and then dried.\nThis reaction mixture contained in the bottle brush was further improved by adding a step of drying the bottle brushes, which facilitates their subsequent manipulation.\nThe exact composition is as follows:\nfor the agar, presence or absence of AlaDMpPD at 0.075 gram per liter (g/l), and\nα-naphthol from 0.01 to 5 g/l, preferably from 0.1 to 1 g/l, and for example 0.5 g/l,\npotassium ferricyanide from 0.01 to 5 g/l, preferably from 0.1 to 1 g/l, and for example 0.5 g/l, and\nAlaDMpPD from 0.01 to 5 g/l, preferably from 0.1 to 1 g/l, and for example 0.35 g/l.\nThe results obtained in terms of sensitivity and specificity are thus the best obtained. In this case, the detection of the reaction is not instantaneous. It takes 15 to 30 seconds (s) to observe the appearance of any coloration, this being the time required for hydrolysis of the substrate by the bacterial aminopeptidase. […]",
  "data": [
    {"substance": "Alanine-Dimethyl-paraPhenyleneDiamine [AlaDMpPD]", "values": [
      {"measurement": "coloration intensity", "setting": "Gram-negative bacteria except Pseudomonas", "value": "greater than 2"},
      {"measurement": "coloration intensity", "setting": "Gram-positive bacteria or false-positives except S. pyogenes", "value": "less than 1"},
      {"measurement": "detection time", "setting": "most Gram-positive bacteria or false-positives, apart from S. pyogenes", "value": "> 10", "unit": "s"}
    ]}
  ]
}
